Measurements reported in ChEMBL document CHEMBL1129976, “New benzocycloalkylpiperazines, potent and selective 5-HT1A receptor ligands” (J Med Chem, 1997).

Assays:
[1] = biological target: T1, 5-hydroxytryptamine receptor 1A (Rattus norvegicus, UniProt P19327); test: Displacement of [3H]8-OH-DPAT from 5-hydroxytryptamine 1A receptor of rat hippocampal membranes; format: cell membranes, Membrane
T1 sequence (P19327 whole entry): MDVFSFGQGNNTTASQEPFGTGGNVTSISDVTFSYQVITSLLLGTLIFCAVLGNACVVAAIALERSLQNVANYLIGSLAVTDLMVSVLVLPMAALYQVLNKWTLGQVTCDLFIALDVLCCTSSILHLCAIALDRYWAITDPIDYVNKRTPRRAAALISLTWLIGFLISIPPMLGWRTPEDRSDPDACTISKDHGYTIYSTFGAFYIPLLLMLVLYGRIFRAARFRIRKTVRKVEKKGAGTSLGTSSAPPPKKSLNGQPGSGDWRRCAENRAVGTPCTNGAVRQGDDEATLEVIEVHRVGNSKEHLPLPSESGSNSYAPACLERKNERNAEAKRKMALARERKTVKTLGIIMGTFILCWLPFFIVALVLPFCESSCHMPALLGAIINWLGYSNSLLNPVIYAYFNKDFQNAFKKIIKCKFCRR

[2] = biological target: T1, 5-hydroxytryptamine receptor 1A; test: Inhibition of forskolin-activated adenylate cyclase (cAMP) activity at 5-hydroxytryptamine 1A receptor in rat hippocampus; format: functional, tissue-based
[3] = biological target: D(2) dopamine receptor (Bos taurus, UniProt P20288); test: Inhibition of [3H]raclopride binding to Dopamine receptor D2 of bovine striatum; format: tissue-based
[4] = biological target: Histamine H1 receptor (Rattus norvegicus, UniProt P31390); test: Inhibition of [3H]pyrilamine binding to Histamine H1 receptor in rat cortex
[5] = test system: Rattus norvegicus; test: in vivo behavioral test for Lower Lip Retraction(LLR) (msad=minimum significant active dose) in rats; format: functional
[6] = Displacement of [3H]-prazosin from Alpha-1 adrenergic receptor of bovine frontal cortex; format: tissue-based, Bos taurus
[7] = biological target: T2, 5-hydroxytryptamine receptor 1A (Rattus norvegicus) (UniProt P19327); test: Inhibition of [3H]8-OH-DPAT binding to 5-hydroxytryptamine 1A receptor in rat hippocampal membranes at 10e-7 M; format: cell membranes; conditions: Hippocampus, Membrane
T2 sequence (whole entry): T1 sequence (P19327 whole entry)

[8] = organism: Bos taurus; test: Inhibition of [3H]ketanserin binding to 5-hydroxytryptamine 2 receptor of bovine frontal cortex at 10e-7 M; format: tissue-based
[9] = organism: Bos taurus; test: Inhibition of [3H]prazosin binding to Alpha-1 adrenergic receptor of calf frontal cortex at 10e-7 M; format: tissue-based
[10] = biological target: D(2) dopamine receptor (Bos taurus) (UniProt P20288); test: Inhibition of [3H]YM-09151-2 binding to Dopamine receptor D2 of bovine striatal preparations at 10e-7 M
[11] = Inhibition of [3H]ketanserin binding to 5-hydroxytryptamine 2 receptor of bovine frontal cortex; format: tissue-based, Bos taurus
[12] = biological target: 5-hydroxytryptamine receptor 2A (Bos taurus, UniProt Q75Z89); test: Binding affinity against 5-hydroxytryptamine 2 receptor
[13] = biological target: D(1A) dopamine receptor (Mus musculus, UniProt Q61616); test: Binding affinity against Dopamine receptor D1
[14] = biological target: D(1A) dopamine receptor (Bos taurus, UniProt Q95136); test: Inhibition of [3H]SCH-23390 binding to Dopamine receptor D1 of bovine striatum; format: tissue-based
[15] = biological target: T3, 5-hydroxytryptamine receptor 3B (Mus musculus, UniProt Q9JHJ5); test: Inhibition of [3H]BRL-43694 binding to 5-hydroxytryptamine 3 receptor in NG cells 108-15; format: cell-based
T3 sequence (Q9JHJ5 whole entry): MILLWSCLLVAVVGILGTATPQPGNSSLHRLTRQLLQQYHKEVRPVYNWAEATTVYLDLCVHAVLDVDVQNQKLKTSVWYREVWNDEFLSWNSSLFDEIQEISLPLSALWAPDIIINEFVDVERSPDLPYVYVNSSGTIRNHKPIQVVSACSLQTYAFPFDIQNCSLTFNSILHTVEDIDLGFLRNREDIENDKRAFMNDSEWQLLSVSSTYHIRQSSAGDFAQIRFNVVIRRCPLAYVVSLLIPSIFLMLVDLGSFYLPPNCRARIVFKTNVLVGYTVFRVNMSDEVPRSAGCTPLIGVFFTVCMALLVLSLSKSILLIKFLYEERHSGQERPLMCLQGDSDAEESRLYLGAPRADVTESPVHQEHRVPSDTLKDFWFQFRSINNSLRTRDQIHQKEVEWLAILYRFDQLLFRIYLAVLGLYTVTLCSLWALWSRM

[16] = biological target: T4, Alpha-1A adrenergic receptor (Bos taurus, UniProt P18130); test: Inhibition of [3H]prazosin binding to Alpha-1 adrenergic receptor in bovine frontal cortex; format: tissue-based
T4 sequence (P18130 whole entry): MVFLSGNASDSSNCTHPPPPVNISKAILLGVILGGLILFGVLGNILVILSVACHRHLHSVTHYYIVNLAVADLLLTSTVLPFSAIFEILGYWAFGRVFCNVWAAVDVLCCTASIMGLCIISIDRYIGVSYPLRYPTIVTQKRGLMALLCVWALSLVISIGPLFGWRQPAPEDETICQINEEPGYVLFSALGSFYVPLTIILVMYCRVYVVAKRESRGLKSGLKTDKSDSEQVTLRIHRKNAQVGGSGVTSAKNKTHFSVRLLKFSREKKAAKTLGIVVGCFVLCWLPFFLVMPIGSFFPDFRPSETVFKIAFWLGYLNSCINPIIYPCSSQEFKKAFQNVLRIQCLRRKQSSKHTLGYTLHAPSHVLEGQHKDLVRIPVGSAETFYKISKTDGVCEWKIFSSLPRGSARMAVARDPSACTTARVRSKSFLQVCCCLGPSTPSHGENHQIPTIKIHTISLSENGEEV

[17] = biological target: Sigma non-opioid intracellular receptor 1 (Rattus norvegicus, UniProt Q9R0C9); test: Inhibition of [3H]DTG binding to sigma receptor in rat hippocampus; format: tissue-based
[18] = biological target: 5-hydroxytryptamine receptor 1D (Sus scrofa, UniProt P79400); test: Binding affinity against 5-hydroxytryptamine 1D receptor using [3H]5-HT in pig striatum + frontalCortex; format: tissue-based
[19] = biological target: T4, Alpha-1A adrenergic receptor; test: Binding affinity of compound towards Alpha-1 adrenergic receptor using [3H]prazosin 0.5 nM ligand in frontal cortex calf was determined; format: tissue-based

Sequence of D(1A) dopamine receptor (Bos taurus, UniProt Q95136) (Q95136 whole entry): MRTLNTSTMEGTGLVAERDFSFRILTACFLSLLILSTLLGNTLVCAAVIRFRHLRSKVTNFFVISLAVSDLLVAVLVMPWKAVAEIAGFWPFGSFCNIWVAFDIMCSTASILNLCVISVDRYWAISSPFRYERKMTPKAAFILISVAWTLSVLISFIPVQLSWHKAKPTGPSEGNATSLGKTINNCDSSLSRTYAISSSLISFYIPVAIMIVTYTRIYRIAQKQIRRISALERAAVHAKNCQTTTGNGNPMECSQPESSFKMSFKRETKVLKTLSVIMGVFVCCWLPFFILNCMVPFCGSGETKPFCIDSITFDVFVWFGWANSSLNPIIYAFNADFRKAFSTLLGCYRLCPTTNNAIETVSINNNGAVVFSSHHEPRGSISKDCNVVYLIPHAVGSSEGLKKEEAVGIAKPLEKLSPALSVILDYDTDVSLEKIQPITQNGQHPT
Sequence of Sigma non-opioid intracellular receptor 1 (Q9R0C9 whole entry): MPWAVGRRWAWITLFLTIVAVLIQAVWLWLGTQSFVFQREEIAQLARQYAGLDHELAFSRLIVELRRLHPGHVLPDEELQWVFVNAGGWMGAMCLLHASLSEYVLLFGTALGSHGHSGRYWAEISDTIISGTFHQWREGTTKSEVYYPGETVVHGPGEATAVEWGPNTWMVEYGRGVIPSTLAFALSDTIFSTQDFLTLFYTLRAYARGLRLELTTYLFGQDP
Sequence of Histamine H1 receptor (P31390 whole entry): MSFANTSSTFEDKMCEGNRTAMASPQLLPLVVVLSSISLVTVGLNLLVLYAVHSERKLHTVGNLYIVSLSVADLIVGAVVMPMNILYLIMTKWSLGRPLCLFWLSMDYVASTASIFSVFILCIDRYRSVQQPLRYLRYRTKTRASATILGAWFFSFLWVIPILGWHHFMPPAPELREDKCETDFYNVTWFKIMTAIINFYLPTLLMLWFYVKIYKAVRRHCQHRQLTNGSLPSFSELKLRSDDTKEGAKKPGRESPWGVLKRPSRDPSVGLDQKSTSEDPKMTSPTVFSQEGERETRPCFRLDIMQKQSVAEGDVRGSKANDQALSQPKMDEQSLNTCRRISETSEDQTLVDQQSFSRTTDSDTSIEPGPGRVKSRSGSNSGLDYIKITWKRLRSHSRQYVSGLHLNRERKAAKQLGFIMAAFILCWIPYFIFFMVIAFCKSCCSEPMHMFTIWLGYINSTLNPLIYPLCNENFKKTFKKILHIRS
Sequence of D(2) dopamine receptor (Bos taurus) (P20288 whole entry): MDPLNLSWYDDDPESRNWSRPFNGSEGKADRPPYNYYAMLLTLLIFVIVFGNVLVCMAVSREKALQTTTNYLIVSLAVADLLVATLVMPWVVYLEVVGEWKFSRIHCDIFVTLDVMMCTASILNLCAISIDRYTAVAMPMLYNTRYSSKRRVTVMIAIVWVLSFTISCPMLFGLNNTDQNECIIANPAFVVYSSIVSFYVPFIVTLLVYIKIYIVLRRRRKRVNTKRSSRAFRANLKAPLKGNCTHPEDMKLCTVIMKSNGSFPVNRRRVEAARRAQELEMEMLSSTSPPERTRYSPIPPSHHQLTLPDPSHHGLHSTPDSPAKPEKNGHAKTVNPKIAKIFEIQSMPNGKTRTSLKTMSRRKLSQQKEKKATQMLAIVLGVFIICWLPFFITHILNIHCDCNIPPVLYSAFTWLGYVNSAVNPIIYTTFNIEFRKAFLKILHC
Sequence of D(2) dopamine receptor (P20288 whole entry): as above
Sequence of 5-hydroxytryptamine receptor 1D (P79400 whole entry): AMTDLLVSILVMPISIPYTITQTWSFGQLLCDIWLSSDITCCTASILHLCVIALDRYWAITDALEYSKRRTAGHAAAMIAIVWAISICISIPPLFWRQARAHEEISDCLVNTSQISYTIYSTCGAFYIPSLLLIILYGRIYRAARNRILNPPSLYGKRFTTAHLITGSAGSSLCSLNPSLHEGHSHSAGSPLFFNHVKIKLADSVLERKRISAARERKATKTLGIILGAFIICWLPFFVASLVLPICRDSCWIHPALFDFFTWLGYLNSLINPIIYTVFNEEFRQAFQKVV
Sequence of 5-hydroxytryptamine receptor 2A (Q75Z89 whole entry): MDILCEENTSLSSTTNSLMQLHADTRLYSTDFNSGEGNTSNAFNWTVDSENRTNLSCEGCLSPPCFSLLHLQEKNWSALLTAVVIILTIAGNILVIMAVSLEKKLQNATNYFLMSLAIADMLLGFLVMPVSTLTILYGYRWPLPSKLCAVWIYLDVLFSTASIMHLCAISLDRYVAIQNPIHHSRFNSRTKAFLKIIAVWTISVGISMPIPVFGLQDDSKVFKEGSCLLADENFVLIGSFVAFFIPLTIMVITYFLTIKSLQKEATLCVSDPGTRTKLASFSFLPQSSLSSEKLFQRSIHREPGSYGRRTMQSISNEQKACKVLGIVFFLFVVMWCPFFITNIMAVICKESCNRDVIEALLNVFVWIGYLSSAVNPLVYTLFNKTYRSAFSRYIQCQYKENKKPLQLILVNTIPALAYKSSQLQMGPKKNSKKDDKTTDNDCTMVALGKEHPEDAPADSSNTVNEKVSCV
Sequence of D(1A) dopamine receptor (Mus musculus, UniProt Q61616) (Q61616 whole entry): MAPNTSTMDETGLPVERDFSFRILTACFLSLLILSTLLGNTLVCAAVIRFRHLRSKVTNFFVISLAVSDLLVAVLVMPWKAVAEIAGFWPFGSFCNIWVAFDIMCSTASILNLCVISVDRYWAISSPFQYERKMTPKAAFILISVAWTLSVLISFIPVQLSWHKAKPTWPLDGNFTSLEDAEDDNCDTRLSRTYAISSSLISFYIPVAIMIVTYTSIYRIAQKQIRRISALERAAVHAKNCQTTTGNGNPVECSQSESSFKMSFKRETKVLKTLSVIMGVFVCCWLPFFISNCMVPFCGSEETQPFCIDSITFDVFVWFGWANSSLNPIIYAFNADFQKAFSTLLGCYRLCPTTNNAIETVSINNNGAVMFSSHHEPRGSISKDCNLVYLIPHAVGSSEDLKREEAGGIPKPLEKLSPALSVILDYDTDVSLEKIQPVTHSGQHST

SMILES	Ki [1]	IC50 [2]	Ki [3]	Ki [4]	Ki [6]	inhibition [7]	inhibition [8]	inhibition [9]	inhibition [10]	Ki ([11]; read-out: Ki)	Ki [14]	Ki [17]	also measured
O=C(NCCN1CCN(C2CCCc3ccccc32)CC1)c1ccccc1 (single isomer, unassigned; (-))	0.4 nM	14 nM	130 nM	70 nM	190 nM	–	–	–	–	–	–	–	LLR msad [5]: 2.75 mg/kg
COc1ccc(C(=O)NCCN2CCN(C3CCCc4ccccc43)CC2)cc1 (stereo unspecified)	–	–	–	–	–	63%	28%	0%	7%	–	–	–	–
O=C1CC2(CCCC2)CC(=O)N1CCCCN1CCN(c2ncccn2)CC1 [BUSPIRONE]	–	–	44 nM	–	1320 nM	–	–	–	–	1250 nM	6100 nM	–	Ki [12]: 178 nM; Ki [13]: > 1000 nM
O=C(CCCN1CCN(C2CCCc3ccccc32)CC1)c1ccc(F)cc1 (stereo unspecified)	17 nM	210 nM	110 nM	42 nM	–	37%	20%	1%	74%	66 nM	1000 nM	30 nM	Ki [15]: 3160 nM; Ki [16]: 18 nM; LLR msad [5]: >64 mg/kg
O=C(NCCN1CCN(C2CCCc3ccccc32)CC1)c1ccc(F)cc1 (stereo in doubt; 33)	1.5 nM	52 nM	70 nM	140 nM	80 nM	–	–	–	–	1180 nM	12000 nM	280 nM	Ki [18]: 9770 nM; Ki [15]: 3470 nM
O=C(NCCN1CCN(C2CCCc3ccccc32)CC1)c1ccccc1 (stereo in doubt; 32) [listing 1 of 2 here]	1.1 nM	36 nM	110 nM	30 nM	150 nM	–	–	–	–	710 nM	21900 nM	90 nM	Ki [18]: 6920 nM; Ki [15]: 3470 nM
O=C(NCCN1CCN(C2CCCc3ccccc32)CC1)c1ccc(F)cc1 (single isomer, unassigned; (+))	50 nM	1450 nM	740 nM	–	710 nM	–	–	–	–	1300 nM	–	190 nM	–
O=C(NCCN1CCN(C2CCCc3ccccc32)CC1)c1ccccc1 (stereo in doubt; 32) [listing 2 of 2 here]	–	–	–	–	–	93%	0%	4%	4%	–	–	–	–
COc1cccc(OC)c1OCCNCC1COc2ccccc2O1 (stereo unspecified)	–	–	–	–	–	–	–	–	–	–	–	–	Ki [19]: 0.6 nM
O=C(NCCN1CCN(C2CCCCc3ccccc32)CC1)c1ccc(F)cc1 (stereo unspecified)	–	–	–	–	–	22%	23%	0%	31%	–	–	–	–
O=C(NCCN1CCN(C2CCCc3ccccc32)CC1)c1ccc(Cl)cc1 (stereo in doubt; 34)	–	–	–	–	–	86%	6%	23%	29%	–	–	–	–
O=C(NCCN1CCN(C2CCCc3ccccc32)CC1)c1ccc(Cl)cc1 (stereo in doubt; (-)-34)	4 nM	38 nM	480 nM	–	450 nM	–	–	–	–	–	27000 nM	1250 nM	Ki [11]: 2700 nM; LLR msad [5]: 2.5 mg/kg
O=C(NCCCN1CCN(C2CCCc3ccccc32)CC1)c1ccccc1 (stereo unspecified)	–	–	–	–	–	39%	17%	11%	2%	–	–	–	–
